We go through 86 molecules from a melting point compilation (Tetko et al.; mined from patent text by program, amines drawn as free bases though some values may be those of a salt).

By melting point is commonly meant the temperature, or range, at which the solid turns liquid. `O=C1c2ccncc2C(=O)c2c(F)ccc(O)c21`: the melting point is 189 to 192 °C.

In the case of `COCCOc1cc(N(C)S(=O)(=O)c2cccs2)c2[nH]c(C(N)=O)cc2c1`, the melting point was in the range of 214 to 215 °C.

For the molecule `CCc1cc(=O)c2c([nH]1)COCC2`, the melting point was in the range of 216 to 218 °C.

With `NCC(=O)SCC(Cc1ccccc1)C(=O)Nc1cccc(C(=O)O)c1` (stereo unspecified), the melting point lay within 91 to 96 °C.

Molecule `Cc1nc(S)nn1-c1ccc([N+](=O)[O-])cc1` showed a melting point of 202 °C.

On to `OCC1OC(n2cnc3c(NCC(c4ccc(Cl)cc4)c4ccc(Cl)cc4)ncnc32)C(O)C1O` (stereo unspecified), for which the melting point was 95 to 120 °C.

Molecule `COC[C@@H]1CC(c2ccc(-c3ccc(N4C[C@H](Cn5ccnn5)OC4=O)cc3F)cn2)=NO1` registered a melting point of 161 °C.

Consider `CCc1cc(=O)c2nc(OCC[Si](C)(C)C)ccc2[nH]1`, for which the melting point was determined as 193 °C.

Turning to `CCC(C(=O)c1ccc(Cl)cc1)n1ncn(-c2ccc(N3CCN(c4ccc(OC)cc4)CC3)nc2)c1=O` (stereo unspecified), the melting point was 142 °C.

`O=Cc1ccc(-c2cccc3cncn23)cc1` came in with a melting point of 144 to 146 °C.

Molecule `CN1C(=O)C(C)(c2ccc(O)cc2)Sc2ccccc21` (stereo unspecified) came in with a melting point of 158 to 160 °C.

In the case of `CC(C)(C)OC(=O)Nc1ccc2nc(-c3cccnc3)nn2c1`, the melting point was found to be 296 °C.

`CCOc1cccc(COc2ccc3c(c2)C=C(C(=O)Nc2ccc(CN(C)C4CCOCC4)cc2)CCS3(=O)=O)c1` gave a melting point of 189 to 192 °C.

`COC(=O)CCCC(C)(C)c1cc(Cl)c(O)c(Cl)c1` had a melting point of 101 to 103 °C.

For `COc1ccc(C(=O)c2cccc(OC)c2)cc1`, the melting point lay within 53 to 55 °C.

`COc1cc(OC)nc(NC(=O)N=NS(=O)(=O)C2SCC(=O)N2C)n1` (stereo unspecified) came in with a melting point of 200 to 201 °C.

In turn, `CCOC(=O)NC(CCSC)C(N)=O` (racemic) had a melting point of 110 to 112 °C.

`CSc1sc(C(N)=O)c(C(C)C)c1-c1oncc1C`: the melting point is 105 °C.

`COc1ccc2c(c1OCc1ccccc1)CC(C(=O)O)N(C(=O)Cc1c(Cl)cccc1Cl)C2` (racemic) showed a melting point of 205 to 207 °C.

Turning to `CC(C#N)c1ccc2c(=O)c3ccccc3ccc2c1` (stereo unspecified), the melting point was 108 to 109 °C.

Take `O=C1Cc2cc(F)cc(C(=O)c3ccc(F)cc3)c2N1`: the melting point fell in the range of 195 to 196 °C.

Take `COc1cc2ncnc(N3CCC(C(C)CN4CCC(C)NS4(=O)=O)CC3)c2cc1OC` (stereo unspecified): the melting point fell in the range of 172 to 175 °C.

With `CCCNc1nc(C)c(CCCl)c(=O)n1C`, the melting point was 150 °C.

`COCc1nc(C(=O)OC)c(C(=O)OC)[nH]1` registered a melting point of 93 to 95 °C.

In the case of `CC(C)c1ccc2c(c1)c(Sc1ccccc1)c(CC(C)(C)C(=O)O)n2Cc1ccc(Cl)cc1`, the melting point was 162 to 165 °C.

As to `CC(C)(C)OC(=O)COC1CCN(CC2CN(c3ccc(CN)cc3)C(=O)O2)CC1` (stereo unspecified), the melting point fell in the range of 95 to 96 °C.

`Cc1c(C#N)cc(C(C)(C)C)c(O)c1C(=O)Nc1ccc(Sc2ccc(Cl)cc2)cc1C(F)(F)F` showed a melting point of 193 to 195 °C.

With `CNC(=O)c1c(N)cc(Cl)cc1Cl`, the melting point fell in the range of 159 to 162 °C.

Consider `CC(C)(C)c1cc(CSCCC(=O)NCCCCCCNC(=O)CCSCc2cc(C(C)(C)C)c(O)c(C(C)(C)C)c2)cc(C(C)(C)C)c1O`, for which the melting point lay in the range of 126 to 130 °C.

On to `CC(CC(C)C1CCC2C3C(=O)CC4CC(=O)CCC4(C)C3CCC12C)C(=O)O` (stereo unspecified), for which the melting point turned out to be 119 °C.

`O=C(NC(Cc1ccc(OCc2ccccc2)cc1)c1noc(=O)[nH]1)c1cn2cc(-c3ccc(Cl)cc3)ccc2n1` (stereo unspecified) came in with a melting point of 167 °C.

As for `Fc1ccc2c(c1)NCc1ccccc1O2`, the melting point worked out at 94 °C.

`COc1ccc2c(c1)CCC1CC(=O)NN=C21` (stereo unspecified): the melting point turned out to be 198 °C.

In the case of `O=C(Nc1cccnc1)N1CCc2cc(Cl)c(Cl)cc21`, the melting point lay within 236 to 238 °C.

Molecule `COc1ccccc1Oc1c(O)nc(O)nc1O` registered a melting point of 202 to 204 °C.

`CCOc1cc(C(CS(C)(=O)=O)N2C(=O)c3cccc(CNC(C)=O)c3C2=O)ccc1OC` (stereo unspecified): the melting point lay within 84 to 86 °C.

Regarding `Cc1c(Br)c2cnnc(OCc3ccc(F)cc3)c2n1Cc1ccccc1`, the melting point lay in the range of 128 to 130 °C.

With `C[Si](C)(C)c1ccc(-c2ccc(I)cc2F)c(F)c1F`, the melting point turned out to be 76 °C.

Regarding `CC(=O)SCC(=O)NC(=O)Cc1ccccc1`, the melting point lay in the range of 153 to 155 °C.

In the case of `Cc1ccc(-c2nc3ccccc3o2)c(F)c1`, the melting point was 115 to 117 °C.

In turn, `Cc1nnc(-c2ccc3occ(-c4cccc(OCc5ccccc5)c4)c3c2)o1` gave a melting point of 96 to 97 °C.

As for `CCOC(=O)C(Cc1ccc(O)cc1)Oc1ccc(Cl)cc1` (stereo unspecified), the melting point was in the range of 90 to 93 °C.

The molecule `CCc1[nH]n(C2CCCC2)c2nc(COS(C)(=O)=O)nc(=O)c1-2` displayed a melting point of 138 to 140 °C.

`O=C(Nc1ccc(CCCc2nnn[nH]2)cc1)C(F)(F)C(F)(F)C(F)(F)C(F)(F)C(F)(F)C(F)(F)C(F)(F)F` came in with a melting point of 170 to 172 °C.

Turning to `CN(C)C(=O)Cc1cccc(NC(=O)N(C)C)c1`, the melting point was in the range of 80 to 81 °C.

The molecule `CC(=O)OC(COc1ccc(C(=O)O)cc1)c1cc2cc(C(C)C)ccc2o1` (stereo unspecified) showed a melting point of 135 to 137 °C.

`N#Cc1cc([N+](=O)[O-])ccc1NCCCn1ccnc1` showed a melting point of 177 °C.

Turning to `CC(CCCC1(C(=O)NCC(F)(F)F)c2ccccc2-c2ccccc21)N1CCC(NC(=O)OC(C)(C)C)CC1` (stereo unspecified), the melting point was 58 to 60 °C.

Regarding `COc1cc(N)c(Cl)cc1C(=O)NCC12CCCN(CC1)C2` (stereo unspecified), the melting point lay within 185 to 187 °C.

Molecule `CCCCOc1c(CNC(=O)OC(C)(C)C)n(CC2CC2)c(=O)c2ccc(C(=O)O)cc12` showed a melting point of 197 to 198 °C.

`CCCCNC(=O)[C@@H](C[C@H](O)[C@H](CC1CCCCC1)NC(=O)[C@H](Cc1cscn1)NC(=O)[C@@H](CC(=O)N1CCOCC1)Cc1ccccc1)C(C)C`: the melting point fell in the range of 161 to 163 °C.

The molecule `O=C1CCCN1c1cccc2cccnc12` yielded a melting point of 118 to 120 °C.

`Cc1cc(-c2ccc(C(F)(F)F)cc2)nc(-c2cccc(-c3cccc(S(N)(=O)=O)c3)n2)c1` came in with a melting point of 229 °C.

In turn, `CC(=O)c1c(C(C)C)nn2ccccc12` registered a melting point of 74 °C.

With `COc1ccc2c(c1)c(Cc1nc(-c3ccc(Br)cc3)cs1)c(C)n2Cc1ccc(Br)cc1`, the melting point was 178 to 179 °C.

For `CCCCCCCCCCC=CCc1c[nH]c(C(=O)NN)c1`, the melting point fell in the range of 130 to 132 °C.

`O=C(Nc1c(Cl)cccc1Cl)C1c2ccccc2COc2ccc(Br)cc21` (stereo unspecified) registered a melting point of 185 to 187 °C.

For the molecule `N#Cc1cnn2c(C(F)(F)F)cc(-c3ccc(C(F)(F)F)c(F)c3)nc12`, the melting point is 184 °C.

`CCCSc1cc(-c2c[nH]nc2C(F)(F)F)ccc1C(=O)OC` registered a melting point of 114 to 116 °C.

For `COc1ccc(C(=O)Nc2cc(NC(=O)c3cccc(OCC(=O)O)c3)ccc2C)cc1OC`, the melting point is 206 to 207 °C.

In turn, `CC1(C)Oc2ccc(C#N)cc2[C@@H](NC2=C(F)C(=O)CC2)[C@@H]1O` (relative stereo) yielded a melting point of 250 to 252 °C.

In the case of `COc1cccc(OCCCNC(=O)OC(C)(C)C)c1-c1cc(Nc2cnc(C#N)cn2)n[nH]1`, the melting point lay in the range of 214 to 216 °C.

`C=CCc1c(C)ccc(N2C(=O)c3ccccc3C2=O)c1OCc1ccccc1` yielded a melting point of 107 to 109 °C.

Molecule `[O-][N+]1=C(c2ccco2)c2cc(Cl)ccc2N(CCCl)C(CCl)C1` (stereo unspecified) yielded a melting point of 158 to 159 °C.

`O=C(c1cccs1)c1cnn2c(-c3cccc(-c4cc[nH]n4)c3)ccnc12` had a melting point of 129 °C.

Take `N#Cc1ccc(-c2ccc(C(F)(F)F)cn2)cc1SCC1CC1`: the melting point lay within 135 to 136 °C.

`COc1ccc(C)cc1NC(=O)Nc1ccc(N2CCN(c3ncccn3)CC2)cc1`: the melting point lay in the range of 220 to 221 °C.

`CC(C(=O)NCC(COC(=O)C(C)(C)C)Cc1ccc(C(C)(C)C)cc1)c1ccc(NS(C)(=O)=O)cc1` (stereo unspecified) displayed a melting point of 97 to 100 °C.

In the case of `CCOC(=O)Cc1c(C)nc(SCc2ccc(OC)cc2)n1C`, the melting point lay within 158 to 160 °C.

Take `Cc1c(-c2ccc(O)cc2)sc(C=NO)c1-c1ccc(O)cc1`: the melting point fell in the range of 233 to 234 °C.

The molecule `COC(=O)c1ccc2ccccc2c1OCC(F)(F)F` gave a melting point of 69.5 to 70.5 °C.

For the molecule `CC(C)C(NC(=O)OCc1cccnc1)C(=O)NC(Cc1ccccc1)C(O)C(Cc1ccccc1)NC(=O)C(NC(=O)OCc1cccnc1)C(C)C` (stereo unspecified), the melting point lay in the range of 177 to 178 °C.

Molecule `NCc1ccc2c(c1)ncn2-c1cccc(-c2ccc(F)nc2)c1` showed a melting point of 141 to 143 °C.

In turn, `O=P(O)(O)C(O)(Cc1c[nH]cn1)P(=O)(O)O` displayed a melting point of more than 290 °C.

For `CCOC(=O)C(=NNc1ccc(C)cc1C)C(C)=O`, the melting point was 106 to 108 °C.

The molecule `CCCCCC12CCC(c3ccc(C#N)c(F)c3)(CC1)CC2` had a melting point of 63 °C.

Consider `Cc1nccn1C(=O)c1ccccc1`, for which the melting point lay in the range of 143 to 144 °C.

As to `CC1(c2ccccc2)CNC(=O)O1` (stereo unspecified), the melting point was in the range of 144 to 145 °C.

`COC(=O)c1cc(OCCCOc2ccccc2-c2ccccc2)cc(OCCCOc2ccccc2-c2ccccc2)c1` showed a melting point of 77 to 79 °C.

For `Cn1nc(-c2ccc(O)cc2)ccc1=O`, the melting point was in the range of 242 to 245 °C.

The molecule `CC(C)(C)OC(=O)Nc1ccc(-c2ccc(OCc3ccccc3)nc2)cc1NC(=O)CC(=O)c1cccc(-n2ccnc2)c1` returned a melting point of 79 to 83 °C.

`CC(=O)OC1CSC(Oc2cccc(-c3cnn(C)c3)c2)C(OC(C)=O)C1OC(C)=O` (stereo unspecified) returned a melting point of 140 °C.

Take `CN1CCCCC1CCn1nc(-c2c(-c3ccccc3)nn3ccccc23)ccc1=O` (stereo unspecified): the melting point was in the range of 114 to 116 °C.

The molecule `CN(C)Cc1nnc2n1-c1ccc(Cl)cc1C(c1ccccc1)=NC2` came in with a melting point of 168 to 171 °C.

With `CC(CCC(=O)O)C1CCC2C3C(O)CC4CC(O[Si](C)(C)C(C)(C)C)CCC4(C)C3CC(O)C12C` (stereo unspecified), the melting point was 146 °C.

`Cc1c(C=CC(=O)O)cccc1[N+](=O)[O-]`: the melting point stood at 222 °C.
